Tests used:
SK-BR-3 = experiment: cells; settings: Homo sapiens, SK-BR-3, 48 h
[1] = Solubility of the compound; format: physicochemical

IC50 (SK-BR-3) [µM] | solubility [1] | SMILES
34 |  | COc1ccc(CC(=O)Nc2ccc(N(C)S(C)(=O)=O)c(OCc3cc(C)ccc3C)c2)cc1OC
> 100 |  | Cc1ccc(C)c(COc2cc(NC(=O)Cc3ccccc3)ccc2N(C)S(C)(=O)=O)c1
 | Insoluble | CCCCCCCCCCCCCCCC(=O)Nc1ccc(N(C)S(C)(=O)=O)c(OCc2cc(C)ccc2C)c1

Reference: ChEMBL document CHEMBL1932938, “From COX-2 inhibitor nimesulide to potent anti-cancer agent: synthesis, in vitro, in vivo and pharmacokinetic evaluation” (Eur J Med Chem, 2012)
